Substitutions are numbered along the chain they refer to.
Legend:
Aurora A (AurA) [1] = experiment: Time-resolved FRET lifetime assay, AurA biosensor labeled at L225C/S284C, 384-well plates; conditions: for inter-probe distance / DFG-In/DFG-Out state of AurA on inhibitor binding: 5 μM inhibitor; for inter-probe distance: samples lacking TPX2 (phosphorylated and unphosphorylated AurA); for DFG-In/DFG-Out state of AurA on inhibitor binding: samples lacking TPX2
[2] = tested on: interaction between AurA and the oncoprotein MYC; conditions: cited from earlier work
p53-altered liver cancer = conditions: mice; cited from earlier work
AurA = biological target: T1, AurA (Homo sapiens, UniProt O14965); conditions: FIG. 11; cited from earlier work
T1 sequence (O14965 1-403): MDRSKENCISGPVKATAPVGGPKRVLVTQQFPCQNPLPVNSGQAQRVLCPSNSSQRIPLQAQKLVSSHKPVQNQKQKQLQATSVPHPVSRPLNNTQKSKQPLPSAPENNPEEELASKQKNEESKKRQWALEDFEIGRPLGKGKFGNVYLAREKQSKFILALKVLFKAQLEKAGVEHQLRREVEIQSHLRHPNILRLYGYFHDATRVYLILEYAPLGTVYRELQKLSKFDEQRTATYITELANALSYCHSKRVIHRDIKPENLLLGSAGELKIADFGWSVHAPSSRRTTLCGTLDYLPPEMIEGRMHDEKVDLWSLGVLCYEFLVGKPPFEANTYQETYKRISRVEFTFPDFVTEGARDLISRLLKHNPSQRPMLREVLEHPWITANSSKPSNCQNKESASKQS

Aurora A (AurA) [3] = experiment: Steady-state FRET ligand titration with FRET-labeled AurA; assay type: binding, human; conditions: apo AurA, Alexa 488/Alexa 568
Method: (§1) ADP stocks (Sigma-Aldrich Corporation, St. Louis, Mo.) were dissolved at 100 mM in 1 M HEPES pH 7.5 and stored at −20° C.
(§2) Samples were excited at 490 nm and fluorescence emission was recorded 510 nm to 750 nm.
(§3) Ligand binding data were visualized and analyzed using Microsoft Excel and Origin software. FRET was calculated using the equation E=1−(DA/D), where E is the efficiency of FRET, DA is the fluorescence of the AurA+D+A sample, and D is the fluorescence of the corresponding AurA+D control sample.

Aurora A (AurA) [4] = biological target: T2, Aurora A (AurA) (Homo sapiens, UniProt O14965, C290S/C393S/L225C/S284C); experiment: Time-resolved FRET lifetime assay, AurA biosensor labeled at L225C/S284C, 384-well plates; conditions: 5 μM inhibitor, unphosphorylated AurA bound to TPX2
T2 sequence (O14965 122-403 L225C/S284C/C290S/C393S): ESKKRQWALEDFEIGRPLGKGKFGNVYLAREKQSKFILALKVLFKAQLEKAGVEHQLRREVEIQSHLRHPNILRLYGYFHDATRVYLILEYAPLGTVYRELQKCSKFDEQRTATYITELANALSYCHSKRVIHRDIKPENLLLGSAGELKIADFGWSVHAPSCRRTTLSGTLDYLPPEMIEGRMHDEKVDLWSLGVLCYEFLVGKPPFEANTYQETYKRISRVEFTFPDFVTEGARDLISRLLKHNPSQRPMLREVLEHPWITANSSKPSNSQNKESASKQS
T2 sequence (Q9ULW0 1-43 partner): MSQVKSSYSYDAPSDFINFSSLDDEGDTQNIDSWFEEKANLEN

Aurora A (AurA) [5] = biological target: T3, Aurora A (AurA) (Homo sapiens, UniProt O14965, C290S/C393S/L225C/T287C); experiment: Time-resolved FRET ligand titration with labeled AurA (Example 1); assay type: binding; conditions: TR-FRET, ligand added to labeled AurA
T3 construct: human Aurora A, residues 122-403, containing an N-terminal hexahistidine tag; hexahistidine (N); made in house; host or cells: E. coli BL21-DE3-RIL
T3 sequence (O14965 122-403 L225C/T287C/C290S/C393S): T2 sequence (O14965 122-403 L225C/S284C/C290S/C393S) with C163S, T166C
Method: Direct waveform recording experiments were performed in a 384 well plate, and measurement was performed using a NovaFluor fluorescence lifetime plate reader (Fluorescence Innovations, Inc., Minneapolis, Minn.). […] Experiments were performed at 50 nM AurA in ADP Quest Assay buffer+1% DMSO.
TCSPC experiments were performed using a spectrometer built by the group of Dr. David D. Thomas. […] Experiments were performed at 100 nM to 200 nM AurA in ADP Quest Assay buffer+1% DMSO.

Aurora A (AurA) [6] = biological target: T4, Aurora A (AurA) (Homo sapiens, UniProt O14965, C290S/C393S/L225C/S284C); experiment: Steady-state FRET ligand titration with FRET-labeled AurA; assay type: binding; conditions: ligand added to apo AurA, calculated from published R0
T4 construct: human Aurora A, residues 122-403, containing an N-terminal hexahistidine tag; hexahistidine (N); made in house; host or cells: E. coli BL21-DE3-RIL
T4 sequence (O14965 122-403 L225C/S284C/C290S/C393S): T2 sequence (O14965 122-403 L225C/S284C/C290S/C393S)
Method: as §1, §2, §3

| DFG-In/DFG-Out state of AurA on inhibitor binding (Aurora A (AurA) [1]) | Molecule | inter-probe distance (Aurora A (AurA) [1]) | change in FRET on addition of ligand (Aurora A (AurA) [3]) | also measured |
| --- | --- | --- | --- | --- |
| DFG-Out state | O=C(O)c1ccc(Nc2ncc3c(n2)-c2ccc(Cl)cc2C(c2c(F)cccc2F)=NC3)cc1 [MLN-8054] |  |  | effect on the AurA-MYC interaction [2]: disrupt; treatment outcome (p53-altered liver cancer): successful treatment; AurA state in the X-ray structure with bound inhibitor (AurA): DFG-Out state |
| DFG-In state | COc1cc(N2CCC(N3CCN(C)CC3)CC2)ccc1Nc1ncc(Cl)c(Nc2ccccc2S(=O)(=O)C(C)C)n1 [TAE-684] | long distances |  |  |
| DFG-Out state | Cc1cc(Nc2cc(N3CCN(C)CC3)nc(Sc3ccc(NC(=O)C4CC4)cc3)n2)n[nH]1 [VX-680] | ~30 Å | no observable change |  |
| DFG-In state | CCc1cccc(CC)c1NC(=O)N1Cc2n[nH]c(NC(=O)c3ccc(N4CCN(C)CC4)cc3)c2C1 [PHA-680632] | long distances |  |  |

The next lines start with the molecule.

| Molecule | DFG-In/DFG-Out state of AurA on inhibitor binding (Aurora A (AurA) [1]) | inter-probe distance (Aurora A (AurA) [1]) | change in FRET on addition of ligand (Aurora A (AurA) [3]) | also measured |
| --- | --- | --- | --- | --- |
| O=C(Nc1cccc(Cl)c1)Nc1ncc(CCNc2ncnc3ccsc23)s1 [SNS-314] |  | long distances |  |  |
| TPX2: AurA-specific activator peptide, synthetic construct of human TPX2 residues 1-43 (MSQVKSSYSYDAPSDFINFSSLDDEGDTQNIDSWFEEKANLEN; UniProt Q9ULW0 1-43, looked up, fragment) |  |  | reduces FRET | width of the distance distribution (full width at half maximum) (Aurora A (AurA) [1]; in the presence of TPX2, no inhibitor): narrow significantly; inter-dye distance (Aurora A (AurA) [1]; in the presence of TPX2, no inhibitor, unphosphorylated and phosphorylated samples (approximately 30 Å without TPX2)): approximately 50 Å |
| CO[C@@H](C(=O)N1Cc2n[nH]c(NC(=O)c3ccc(N4CCN(C)CC4)cc3)c2C1)c1ccccc1 [Danusertib] | DFG-Out state | ~30 Å |  | inter-probe distance relative to DFG-In compounds (Aurora A (AurA) [4]): slightly shorter distances; AurA state in the X-ray structure with bound inhibitor (AurA): DFG-Out state |
| Nc1ncnc2c1ncn2[C@@H]1O[C@H](COP(=O)(O)OP(=O)(O)O)[C@@H](O)[C@H]1O [ADP] |  |  | reduce FRET | change in average fluorescence lifetime (Aurora A (AurA) [5]): increase in average fluorescence lifetime; increase in population average R (donor-acceptor distance) (Aurora A (AurA) [6]): approximately 3 Å |
